test system: not given; experiment: not given; details: not given

| Compound | melting point |
| --- | --- |
| O=C(NCC12CC3CC(CC(C3)C1)C2)c1cc(-c2ccncc2C(=O)O)ccc1Cl [Example 70, 4-[4-Chloro-3-[[(tricyclo[3.3.1.1^3,7]dec-1-ylmethyl)amino]carbonyl]phenyl]-3-pyridinecarboxylic acid] | 104 to 107 °C |
| C[C@H](Oc1ccccc1-c1ccc(Cl)c(C(=O)NCC23CC4CC(CC(C4)C2)C3)c1)C(=O)O [Example 14, (2S)-2-[[4′-chloro-3′-[[(tricyclo[3.3.1.1^3,7]dec-1-ylmethyl)amino]carbonyl][1,1′-biphenyl]-2-yl]oxy]-propanoic acid] | 107 to 110 °C |
| Cc1ccc(-c2ccc(Cl)c(C(=O)NCC34CC5CC(CC(C5)C3)C4)c2)nc1C(=O)O [Example 71, 6-[4-Chloro-3-[[(tricyclo[3.3.1.1^3,7]dec-1-ylmethyl)amino]carbonyl]phenyl]-3-methyl-2-pyridinecarboxylic acid] | 180 to 185 °C |
| O=C(O)c1cccc(-c2ccc(Cl)c(C(=O)NCC34CC5CC(CC(C5)C3)C4)c2)n1 [Example 20, 6-[4-Chloro-3-[[(tricyclo[3.3.1.1^3,7]dec-1-ylmethyl)amino]carbonyl]phenyl]-2-pyridinecarboxylic acid] | 170 to 173 °C |
| O=C(NCC12CC3CC(CC(C3)C1)C2)c1cc(-c2cccnc2N2CCCC(C(=O)O)C2)ccc1Cl (stereo not shown) [Example 61, 1-[3-[4-Chloro-3-[[(tricyclo[3.3.1.1^3,7]dec-1-ylmethyl)amino]carbonyl]phenyl]-2-pyridinyl]-3-piperidinecarboxylic acid] | 125 to 130 °C |
| Cc1ccc(-c2ccc(Cl)c(C(=O)NCC34CC5CC(CC(C5)C3)C4)c2)c(C(=O)O)n1 [Example 63, 3-[4-Chloro-3-[[(tricyclo[3.3.1.1^3,7]dec-1-ylmethyl)amino]carbonyl]phenyl]-6-methyl-2-pyridinecarboxylic acid] | 125 to 130 °C |
| CS(=O)(=O)Nc1nccnc1-c1ccc(Cl)c(C(=O)NCC23CC4CC(CC(C4)C2)C3)c1 [Example 8, 2-Chloro-5-[3-[(methylsulfonyl)amino)pyrazinyl]-N-(tricyclo[3.3.1.1^3,7]dec-1-ylmethyl)-benzamide] | 245 °C (dec.) |
| Cn1ncc(-c2ccc(Cl)c(C(=O)NCC34CC5CC(CC(C5)C3)C4)c2)c1C(=O)O [Example 32, 4-[4-Chloro-3-[[(tricyclo[3.3.1.1^3,7]dec-1-ylmethyl)amino]carbonyl]phenyl]-1-methyl-1H-pyrazole-5-carboxylic acid] | 187 to 190 °C (dec.) |
| Cc1cnc(C(=O)O)c(-c2ccc(Cl)c(C(=O)NCC34CC5CC(CC(C5)C3)C4)c2)c1 [Example 64, 3-[4-Chloro-3-[[(tricyclo[3.3.1.1^3,7]dec-1-ylmethyl)amino]carbonyl]phenyl]-5-methyl-2-pyridinecarboxylic acid] | 125 to 130 °C |
| CN(CC(=O)O)c1nccnc1-c1ccc(Cl)c(C(=O)NCC23CC4CC(CC(C4)C2)C3)c1 [Example 33, N-[3-[4-Chloro-3-[[(tricyclo[3.3.1.1^3,7]dec-1-ylmethyl)amino]carbonyl]phenyl]pyrazinyl]-N-methyl-glycine] | 151 to 153 °C (dec.) |
| O=C(NCC12CC3CC(CC(C3)C1)C2)c1cc(-c2c(F)cccc2C(=O)O)ccc1Cl [Example 35, 4′-Chloro-6-fluoro-3′-[[(tricyclo[3.3.1.1^3,7]dec-1-ylmethyl)amino]carbonyl]-[1,1′-biphenyl]-2-carboxylic acid] | 108 to 113 °C |
| Cc1nn(C)c(C(=O)O)c1-c1ccc(Cl)c(C(=O)NCC23CC4CC(CC(C4)C2)C3)c1 [Example 56, 4-[4-Chloro-3-[[(tricyclo[3.3.1.1^3,7]dec-1-ylmethyl)amino]carbonyl]phenyl]-1,3-dimethyl-1H-pyrazole-5-carboxylic acid] | 207 °C |

molecular target: T1, P2X7 receptor (Homo sapiens, UniProt Q99572); experiment: P2X7 receptor antagonist test: bbATP-induced ethidium bromide fluorescence in THP-1 cells; type: cell-based; details: 10^-5M bbATP agonist, 10^-4M ethidium bromide, 37° C. one hour, negative log of concentration reducing bbATP agonist activity by 50%
T1 construct: 200 μl of a suspension of THP-1 cells; endogenous in cells; host or cells: THP-1 cells
T1 sequence (Q99572 1-595): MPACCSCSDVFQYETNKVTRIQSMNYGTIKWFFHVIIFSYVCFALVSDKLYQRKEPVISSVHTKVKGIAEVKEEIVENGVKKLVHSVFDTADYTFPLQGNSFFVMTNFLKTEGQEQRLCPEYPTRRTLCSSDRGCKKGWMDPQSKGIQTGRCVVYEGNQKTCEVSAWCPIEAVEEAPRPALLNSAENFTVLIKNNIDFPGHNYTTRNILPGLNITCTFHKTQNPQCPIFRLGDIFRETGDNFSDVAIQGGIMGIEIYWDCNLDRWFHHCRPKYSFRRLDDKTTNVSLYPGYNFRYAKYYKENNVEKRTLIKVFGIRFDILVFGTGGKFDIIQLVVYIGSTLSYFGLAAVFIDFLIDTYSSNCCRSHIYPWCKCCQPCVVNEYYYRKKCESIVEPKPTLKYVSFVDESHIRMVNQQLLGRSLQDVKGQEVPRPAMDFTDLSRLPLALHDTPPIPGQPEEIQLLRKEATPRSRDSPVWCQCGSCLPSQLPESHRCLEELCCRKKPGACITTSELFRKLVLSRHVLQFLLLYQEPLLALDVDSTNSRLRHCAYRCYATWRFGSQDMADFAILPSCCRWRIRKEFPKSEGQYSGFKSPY
Experimental: Consequently, when the receptor is activated using bbATP in the presence of ethidium bromide (a fluorescent DNA probe), an increase in the fluorescence of intracellular DNA-bound ethidium bromide is observed. The increase in fluorescence can be used as a measure of P2X7 receptor activation and therefore to quantify the effect of a compound on the P2X7 receptor.
In this manner, each of the title compounds of the Examples was tested for antagonist activity at the P2X7 receptor. […] The plate was covered with a plastics sheet and incubated at 37° C. for one hour. The plate was then read in a Perkin-Elmer fluorescent plate reader, excitation 520 nm, emission 595 nm, slit widths: Ex 15 nm, Em 20 nm. For the purposes of comparison, bbATP (a P2X7 receptor agonist) and pyridoxal 5-phosphate (a P2X7 receptor antagonist) were used separately in the test as controls. From the readings obtained, a pIC50 figure was calculated for each test compound, this figure being the negative logarithm of the concentration of test compound necessary to reduce the bbATP agonist activity by 50%.

| Compound | IC50 [µM] |
| --- | --- |
| O=C(O)c1ccc(-c2ccc(Cl)c(C(=O)NCC34CC5CC(CC(C5)C3)C4)c2)cc1 [Example 1, 4′-Chloro-3′-[[(tricyclo[3.3.1.1^3,7]dec-1-ylmethyl)amino]carbonyl]-[1,1′-biphenyl]-4-carboxylic acid] | 0.316 |
